Measured values from patent US10117943B2, “Synthetic antibody mimetic compounds (SYAMS) targeting cancer, especially prostate cancer” (YALE UNIVERSITY, priority 2013, dated 2018).

What was measured:
[1] = tested on: RM1.PGLS cells; experiment: Phagocytosis of PSMA expressing RM1.PGLS cells by IFN-γ primed U937 cells; assay type: cell-based; conditions: IFN-γ primed U937 effectors
Experimental: Target cell passing: Three days before the experiments, a plate of target cells, RM1.PGLS cells were passed into a new flask.
Effector cell priming: Three days before the experiments, a plate of U937 cells (approximately 60% confluent) was passed into a new Petri dish (10 mL colored ADCP media total volume). IFN-γ (20 μL, 100 μg/mL in DPBS) was added, and the cells were maintained in an incubator (37° C., 24 h). The cells were transferred into a Falcon tube, and DiD (19 uL, final concentration=1.9 μM) was added. The cells were maintained in an incubator (37° C., 30 min), pelleted, aspirated, resuspended in colored ADCP media (10 mL), and split equally into two Petri dishes. To each dish were added additional colored ADCP media (5 mL) and IFN-γ (20 μL, 100 μg/mL in DPBS), and the cells were maintained in an incubator (37° C., 24 h).
Target cell preparation: To a plate of target cells (60-80% confluent RM1.PGLS cells 10 mL total media volume) was added DiO (20 μL, final concentration=2 μM). The cells were maintained in an incubator (37° C., 30 min), aspirated, and washed with colored ADCP media (3×10 mL). Colored ADCP media (10 mL) was added. The cells were maintained in an incubator (37° C., 2 h), detached and resuspended in color-free ADCP media at a concentration of 0.5 million cells per mL.
Effector cell preparation: Both dishes of primed U937 cells were transferred into a Falcon tube, pelleted, aspirated, resuspended in color-free ADCP media (10 mL), counted, and diluted with color-free ADCP media to give a final concentration of 2 million cells per mL.
Phagocytosis: All conditions were run in triplicate. For each experiment, into a sterile 2 mL Eppendorf tube were added color-free ADCP media (25 μL) containing either various concentrations of SyAM-Px or ARM-P8/Anti-DNP antibody, target cells (25 μL=12,500 cells), and effector cells (50 μL=100,000 cells), to give an effector-to-target ratio of 8:1. Tubes were gently agitated by hand. The cells were pelleted (2 min, 1100 rpm). The tubes were opened, maintained in an incubator (37° C., 1 h), resuspended by briefly agitating with a vortex, and analyzed by flow cytometry.

[2] = tested on: RM1.PGLS cells; experiment: Superoxide burst (lucigenin) by primed U937 cells against RM1.PGLS cells; assay type: cell-based; conditions: IFN-γ primed U937 effectors
Description: Since SyAM-P1 was able to induce effector-cell mediated responses against target protein coated beads, the inventors then evaluated if the molecule can elicit the effects against PSMA expressing cells. To that end, the inventors evaluated the SyAM-P1 induced immune responses by primed U937 effector cells against PSMA expressing RM1.PGLS cells. They tested the U937-mediated immune effects by evaluating both superoxide burst and phagocytosis of effector cells, analogous to the protein coated bead experiments. In this experiment, IFN-γ primed U937 cells were incubated with PSMA expressing RM1.PGLS cells, and treated with various concentrations of SyAM-P1. The resulting superoxide burst response was measured using the lucigenin assay (data not shown). Additionally, primed U937 cells (stained with DiD, an FL4 membrane dye) were incubated with target RM1.PGLS cells (stained with […], an FL1 membrane dye), in the presence of various concentrations of SyAM-P 1. The resulting phagocytosis—indicated by FL1 and FL4 double positive cells—was measured using two-color flow-cytometry. As a positive control, ARM-P8 combined with anti-DNP antibodies was utilized. […] The positive response seen with the Arm-P8 control, could potentially be attributed to the ability of antibodies to ligate both FcγRI and FcγRIIA on the immune effector cells, increasing immune signaling and phagocytic responses.

[3] = target: T1, FcγRI on IIA1.6 cells and soluble recombinant human PSMA (Homo sapiens, UniProt P12314+Q04609); experiment: Ternary complex formation between FcγRI expressing IIA1.6 cells and soluble PSMA; assay type: binding; conditions: probed with phycoerythrin anti-PSMA antibody
T1 construct: soluble recombinant human PSMA; Avi-tag; expressed in transfected cells; host or cells: IIA1.6 cells (FcγRI); PSMA added as soluble recombinant protein
Experimental: The inventors next evaluated SyAM-P1's ability to induce ternary complex formation, using soluble PSMA and FcγRI expressing cells (IIA1.6 cells) (FIG. 3c). The binding of PSMA to the cells was probed with a phycoerythrin anti-PSMA antibody, and was analyzed using flow cytometry.

[4] = target: T2, FcγRI (Homo sapiens, UniProt P12314); experiment: IIA1.6 FcγRI expressing cell binding assay; conditions: biotin-functionalized compound, fluorescent streptavidin
T2 construct: host or cells: IIA1.6 cells
Experimental: Peptide dilutions have been prepared in DMSO usually starting form 1 mM stock solution with further 10 fold dilution. Cells IIa1.6 stably transfected with FcγRIA/γ-chain and non-transfected IIa1.6 cells used as isogenic negative control, were grown to approximately 1.5-2×10^6 cells/mL density, spun down and reconstituted in RPMI 1640 medium without phenol red, supplemented with 10% FBS and Pen/Strep mixture to cell density 1×10^6 cells/mL. A 100 uL aliquot of cells was further transferred into an eppendorf tube and left to cool on ice for 5-10 minutes. Following this 1 uL of peptide dissolved in DMSO was added to the cells, bringing final concentration of DMSO to 1%. After 1 hour incubation on ice with a peptide 5 uL of Streptavidin-Alexafluor 488 (2 mg/mL) was added to the cells and left incubating on ice for 30-60 minutes. After the incubation cells were washed two times with 1 mL of cold RPMI1640 medium without phenol red, supplemented with 10% FBS and Pen/Strep and finally washed once in 1 mL TBS Buffer (150 mM NaCl and 25 mM Tris, pH 7.4). Cells were resuspended in residual TBS buffer (usually ˜100 uL) and analyzed via flow cytometry with detection in the FL1 channel.

[5] = tested on: PSMA coated beads; experiment: ROS production (superoxide burst, lucigenin) by primed U937 cells against PSMA coated beads; assay type: cell-based; conditions: PSMA labeled beads, target dependent
Experimental: Three days before the experiments, a plate of U937 cells (approximately 60% confluent) was passed into a new Petri dish (10 mL colored RPMI growth media total volume). IFN-γ (20 μL, 100 μg/mL in DPBS) was added, and the cells were maintained in an incubator (37° C., 24 h). The cells were pelleted after 24 hours and resuspended in 10 mL of IFN-γ (20 uL, 100 ug/mL in DPBS) and maintained in an incubator (37° C., 24 h)
For ROS production cells were resuspended in RPMI growth media (10 mL), and split equally into two Petri dishes. To each dish were added additional colored RPMI growth media (5 mL) and IFN-γ (20 μL, 100 μg/mL in DPBS), and maintained in an incubator (37° C., 24 h)
Primed U937 were suspended in color-free ADCP media at a concentration of 3×10^5 U937 cells and mixed with 10^5 PSMA coated beads and various concentrations of molecules in a 96 well plate in a volume of 90 uL. To each well was added 10 μl of 2.5 mM lucigenin (Tokyo Chemicals) solution to bring the total volume to 100 μl. The plate was centrifuged at 200 rcf for 2 minutes (PLATE SPINNER). The chemiluminescence was then measured at two minute intervals by plate reader (Biotek Synergy 2) for 60 to 90 minutes.

[6] = target: T3, PSMA on RM1.PGLS cells (Homo sapiens, UniProt Q04609); experiment: Binding to PSMA on RM1.PGLS cells (flow cytometry); conditions: biotin-functionalized compound, fluorescent streptavidin
T3 construct: host or cells: RM1.PGLS cells
Description: Accordingly, the inventors first synthesized the SyAM-P1 molecule, using Fmoc solid phase peptide synthesis to connect the two moieties (FIG. 2). As a consequence of that chemical synthesis the inventors tried to determine whether linking the two moieties would influence their ability to bind their respective protein targets, in a selective manner (FIG. 3A,B). The inventors thereafter evaluated the ability of the first-generation of SyAM-P molecules, identified as SyAM-P1, to bind PSMA on RM1.PGLS cells (FIG. 3A) or FcγRI on IIA1.6 cells (FIG. 3B). These experiments were conducted using SyAM-P1 molecules that were functionalized with biotin, and the bound SyAM-P1 was detected using a fluorescently labeled streptavidin, via flow-cytometry.
The binding of each SyAm derivative to PSMA was evaluated on PSMA-coated beads. 6 μm streptavidin labeled beads (Polysciences) were incubated with 400 μg/ml recombinant avi-tagged-PSMA protein for 30 minutes. Beads were washed twice with PBS, blocked with 1 mg/ml biotin for 30 minutes and then washed twice with TBS-A. 10^5 beads were incubated with a dilution series of SyAm ranging from 1 μM-100 pM. Streptavidin-Alexa467 (Invitrogen) was added to a final concentration of 3.3 μM. Samples were incubated on ice for 30 minutes, washed twice with DPBS, and evaluated by an Accuri C6 flow cytometer. […]

T1 sequence (P12314 16-374): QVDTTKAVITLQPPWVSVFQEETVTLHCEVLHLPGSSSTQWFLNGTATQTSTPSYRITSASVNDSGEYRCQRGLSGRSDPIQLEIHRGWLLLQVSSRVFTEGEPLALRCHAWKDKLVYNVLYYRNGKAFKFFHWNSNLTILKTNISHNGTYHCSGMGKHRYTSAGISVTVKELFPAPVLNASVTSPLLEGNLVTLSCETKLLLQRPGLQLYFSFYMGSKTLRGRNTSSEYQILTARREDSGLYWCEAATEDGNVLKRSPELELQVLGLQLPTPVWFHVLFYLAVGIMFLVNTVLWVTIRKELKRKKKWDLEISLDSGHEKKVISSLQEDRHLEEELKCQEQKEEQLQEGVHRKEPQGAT
T1 sequence (Q04609 44-750 limits assumed): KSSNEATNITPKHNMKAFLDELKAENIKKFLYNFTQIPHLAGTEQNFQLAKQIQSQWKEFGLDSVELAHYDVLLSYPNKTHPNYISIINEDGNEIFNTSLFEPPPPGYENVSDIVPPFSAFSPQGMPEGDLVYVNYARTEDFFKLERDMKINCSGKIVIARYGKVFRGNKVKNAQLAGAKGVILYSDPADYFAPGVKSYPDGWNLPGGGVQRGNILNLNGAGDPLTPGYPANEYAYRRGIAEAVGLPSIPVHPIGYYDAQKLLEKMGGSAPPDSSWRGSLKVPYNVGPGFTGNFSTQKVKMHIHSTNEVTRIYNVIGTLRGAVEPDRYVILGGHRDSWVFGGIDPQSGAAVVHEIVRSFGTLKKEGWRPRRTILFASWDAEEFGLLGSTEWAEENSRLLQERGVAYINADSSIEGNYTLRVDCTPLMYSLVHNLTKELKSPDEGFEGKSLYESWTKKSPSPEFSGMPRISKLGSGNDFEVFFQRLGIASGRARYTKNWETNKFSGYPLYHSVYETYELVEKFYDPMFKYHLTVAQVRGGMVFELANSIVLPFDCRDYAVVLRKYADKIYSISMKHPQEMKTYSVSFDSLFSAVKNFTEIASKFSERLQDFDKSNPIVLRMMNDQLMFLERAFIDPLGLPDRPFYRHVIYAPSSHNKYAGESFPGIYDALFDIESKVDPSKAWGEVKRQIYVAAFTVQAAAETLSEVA
T1 sequence (P30273 19-86 partner): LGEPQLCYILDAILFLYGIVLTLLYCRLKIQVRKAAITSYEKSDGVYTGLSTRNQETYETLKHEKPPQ
T2 sequence (P12314 16-374): as the sequence (P12314 16-374) above
T2 sequence (P30273 19-86 partner): as the sequence (P30273 19-86 partner) above
T3 sequence (Q04609 whole entry): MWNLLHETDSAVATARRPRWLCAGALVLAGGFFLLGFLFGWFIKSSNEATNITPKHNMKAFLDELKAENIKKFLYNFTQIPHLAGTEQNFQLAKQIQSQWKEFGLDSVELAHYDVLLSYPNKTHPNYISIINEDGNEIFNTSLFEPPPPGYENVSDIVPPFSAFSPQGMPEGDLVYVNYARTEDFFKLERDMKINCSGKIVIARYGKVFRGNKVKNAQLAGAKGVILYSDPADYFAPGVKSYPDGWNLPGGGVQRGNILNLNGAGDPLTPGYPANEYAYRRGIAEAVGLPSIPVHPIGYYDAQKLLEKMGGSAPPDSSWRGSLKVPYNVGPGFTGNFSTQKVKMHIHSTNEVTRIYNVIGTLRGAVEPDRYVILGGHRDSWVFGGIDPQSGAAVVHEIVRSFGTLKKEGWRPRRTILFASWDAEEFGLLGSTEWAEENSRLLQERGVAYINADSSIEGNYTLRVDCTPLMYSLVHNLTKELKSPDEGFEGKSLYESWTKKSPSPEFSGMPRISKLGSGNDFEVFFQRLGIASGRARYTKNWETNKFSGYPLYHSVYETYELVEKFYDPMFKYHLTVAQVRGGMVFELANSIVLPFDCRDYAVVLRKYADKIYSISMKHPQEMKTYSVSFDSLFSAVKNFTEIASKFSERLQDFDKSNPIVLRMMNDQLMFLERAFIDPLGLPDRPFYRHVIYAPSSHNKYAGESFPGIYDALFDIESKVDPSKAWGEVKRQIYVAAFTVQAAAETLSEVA

CC(=O)N[C@H](C(=O)N[C@@H](CC(N)=O)C(=O)N[C@@H](CO)C(=O)N[C@H]1CSSC[C@@H](C(=O)NCC(=O)N[C@@H](CC(=O)O)C(=O)N[C@@H](CC(=O)O)C(=O)N[C@@H](CCCCNC(=O)CCCC[C@@H]2SC[C@@H]3NC(=O)N[C@@H]32)C(=O)NCCCCCC(=O)NCCCCCC(=O)NCCCCCC(=O)NCCCCCC(=O)NCCCCCC(=O)N[C@@H](CCCCNC(=O)CCCCc2cn(CCCC[C@H](NC(=O)N[C@@H](CCC(=O)O)C(=O)O)C(=O)O)nn2)C(=O)NCC(N)=O)NC(=O)CNC(=O)[C@H](CC(C)C)NC(=O)[C@H](CC(C)C)NC(=O)[C@H](CC(N)=O)NC(=O)[C@@H]2CCCN2C(=O)[C@H](CC(C)C)NC(=O)[C@H](CC(C)C)NC(=O)[C@H](CC(C)C)NC1=O)C(C)C [SyAM-P1]
phagocytosis of RM1.PGLS cells (in words) [1]: unable to induce any immune responses
superoxide burst against RM1.PGLS cells (in words) [2]: unable to induce any immune responses
ternary complex formation [3]: mediated through SyAM-P1
binding to FcγRI on IIA1.6 cells [4]: capability to bind to its respective targets
concentration at which superoxide burst is induced [5]: 100 nM
binding to PSMA on RM1.PGLS cells [6]: capability to bind to its respective targets
